# Key:
# Human recombinant MMP-13 = target: T1, Human recombinant MMP-13 (Homo sapiens, UniProt P45452); experiment: In vitro MMP inhibition, IC50 determination (fluorogenic substrate I); format: biochemical
# T1 construct: made in house; host or cells: baculovirus / insect cells
# Outline: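 Fluorescence at 415 nm (excitation 328 nm) reports Gly-Leu cleavage of 4 μM quenched methoxycoumarin peptide substrate I. Human recombinant MMP-13, activated by trypsin or APMA, was incubated at room temperature with varied inhibitor concentrations in pH 7.5 Tris/NaCl/CaCl2 buffer; IC50 derived from reduced fluorescence.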
# Human recombinant MMP-2 = target: T2, Human recombinant MMP-2 (Homo sapiens, UniProt P08253); experiment: as above; format: biochemical
# T2 construct: made in house; host or cells: MMP-2-transfected p2AHT2 cells
# T2 sequence (P08253 110-660): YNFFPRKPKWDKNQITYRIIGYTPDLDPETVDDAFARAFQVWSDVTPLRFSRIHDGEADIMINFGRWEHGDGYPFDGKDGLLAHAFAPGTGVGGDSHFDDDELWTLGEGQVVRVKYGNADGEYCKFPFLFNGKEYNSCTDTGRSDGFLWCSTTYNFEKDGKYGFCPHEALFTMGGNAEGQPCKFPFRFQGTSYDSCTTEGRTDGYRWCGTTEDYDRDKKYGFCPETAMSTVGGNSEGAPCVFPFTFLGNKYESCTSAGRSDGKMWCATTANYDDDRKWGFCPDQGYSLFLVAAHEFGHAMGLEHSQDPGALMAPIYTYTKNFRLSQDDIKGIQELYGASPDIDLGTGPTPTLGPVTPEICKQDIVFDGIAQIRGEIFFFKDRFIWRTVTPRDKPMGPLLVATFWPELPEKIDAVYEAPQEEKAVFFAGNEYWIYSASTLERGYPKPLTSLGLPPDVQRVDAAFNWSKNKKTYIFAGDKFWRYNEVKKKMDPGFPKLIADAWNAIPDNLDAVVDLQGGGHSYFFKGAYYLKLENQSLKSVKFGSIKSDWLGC
# Outline: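 IC50 was derived from the concentration-dependent fall in fluorescence (ex 328, em 415 nm) on Gly-Leu cleavage of 4 μM MCA/Dpa-quenched substrate I. Assays ran at room temperature in pH 7.5 Tris/NaCl/CaCl2/Brij buffer with MMP-2 activated by trypsin or APMA; inhibitors were diluted from 1% DMSO stocks.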
# [1] = value outside parentheses (Ki in parenthesis)
Structure (SMILES),IC50 (Human recombinant MMP-13; [1]),IC50 (Human recombinant MMP-2; [1]),IC50 (Human recombinant MMP-13; value outside parentheses),IC50 (Human recombinant MMP-2; value outside parentheses)
COc1ccc(S(=O)(=O)C[C@H](C)COc2ccc(S(=O)(=O)C3(C(=O)NO)CCOCC3)cc2)cc1 [Example 433],0.007 µM,0.22 µM,,
COc1ccc(SC[C@H](C)COc2ccc(S(=O)(=O)C3(C(=O)NO)CCOCC3)cc2)cc1 [Example 434],0.0006 µM,0.0011 µM,,
O=C(NO)C1(S(=O)(=O)c2ccc(OCCCOc3ccccc3C(F)(F)F)cc2)CCOCC1 [Example 444],0.0076 µM,0.0089 µM,,
CCCCOc1ccc(OCCCOc2ccc(S(=O)(=O)C3(C(=O)NO)CCOCC3)cc2)cc1 [Example 446],0.0066 µM,0.076 µM,,
O=C(NO)C1(S(=O)(=O)c2ccc(OCCCCO)cc2)CCOCC1 [Example 451],0.009 µM,0.0047 µM,,
O=C(NO)C1(S(=O)(=O)c2ccc(OCCCCCO)cc2)CCOCC1 [Example 452],0.0148 µM,0.0022 µM,,
COCC(C)(C)COc1ccc(S(=O)(=O)C2(C(=O)NO)CCOCC2)cc1 [Example 455],0.69 µM,0.9 µM,,
CCOCC(C)(C)COc1ccc(S(=O)(=O)C2(C(=O)NO)CCOCC2)cc1 [Example 456],0.35 µM,0.425 µM,,
O=C(NO)C1(S(=O)(=O)c2ccc(OCCCCCc3ccc4ccccc4c3)cc2)CCOCC1 [Example 464],0.0014 µM,0.046 µM,,
C=CCCCOc1ccc(S(=O)(=O)C2(C(=O)NO)CCOCC2)cc1 [Example 481],0.002 µM,0.0013 µM,,
COC(=O)c1ccccc1S(=O)(=O)N1CC(Oc2ccc(S(=O)(=O)C3(C(=O)NO)CCOCC3)cc2)C1 [Example 482],0.04 µM,3.3 µM,,
COc1ccc(OC)c(S(=O)(=O)N2CC(Oc3ccc(S(=O)(=O)C4(C(=O)NO)CCOCC4)cc3)C2)c1 [Example 484],0.012 µM,0.64 µM,,
COc1ccc(OC)c(S(=O)(=O)NCC(CCl)Oc2ccc(S(=O)(=O)C3(C(=O)NO)CCOCC3)cc2)c1 (stereo not shown) [Example 485],0.064 µM,4 µM,,
COc1cc2c(cc1OC)CN(C(=O)NCCCOc1ccc(S(=O)(=O)C3(C(=O)NO)CCOCC3)cc1)CC2 [Example 496],,,0.0084 µM,0.242 µM
O=C(NCCCOc1ccc(S(=O)(=O)C2(C(=O)NO)CCOCC2)cc1)N1CCOCC1 [Example 497],,,0.0235 µM,1.45 µM
COc1ccc(NC(=O)NCCCOc2ccc(S(=O)(=O)C3(C(=O)NO)CCOCC3)cc2)c(C)c1 [Example 498],,,0.0148 µM,0.16 µM
O=C(NO)C1(S(=O)(=O)c2ccc(OCCc3cccc(-c4cncnc4)c3)cc2)CCOCC1 [Example 521],,,0.0058 µM,0.062 µM
CCN1CCC(C(=O)NO)(S(=O)(=O)c2ccc(OCCCSc3nc4ccccc4o3)cc2)CC1 [Example 525],,,0.0015 µM,0.0075 µM
O=C(Cc1nn[nH]n1)NCCOc1ccc(S(=O)(=O)C2(C(=O)NO)CCOCC2)cc1 [Example 564],,,0.0194 µM,0.145 µM
O=C(Cc1nnn(Cc2ccccc2)n1)NCCOc1ccc(S(=O)(=O)C2(C(=O)NO)CCOCC2)cc1 [Example 565],,,0.0016 µM,0.014 µM
Cn1cnc(CC(=O)NCCOc2ccc(S(=O)(=O)C3(C(=O)NO)CCOCC3)cc2)c1 [Example 566],,,0.0188 µM,0.0657 µM
O=C(NO)C1(S(=O)(=O)c2ccc(OCCCc3nnc(-c4ccncc4)o3)cc2)CCOCC1 [Example 568],,,0.0015 µM,0.021 µM
O=C(CCCOc1ccc(S(=O)(=O)C2(C(=O)NO)CCOCC2)cc1)Nc1cccc(-c2ccccc2)c1 [Example 571],,,0.0016 µM,0.0119 µM
CC(C)(C)c1cccc(NC(=O)CCCOc2ccc(S(=O)(=O)C3(C(=O)NO)CCOCC3)cc2)c1 [Example 572],,,0.0047 µM,0.0373 µM

Structure (SMILES),IC50 (Human recombinant MMP-13; [1]),IC50 (Human recombinant MMP-2; [1]),IC50 (Human recombinant MMP-13; value outside parentheses),IC50 (Human recombinant MMP-2; value outside parentheses)
O=C(NO)C1(S(=O)(=O)c2ccc(OCCCc3cc(C(F)(F)F)cc(C(F)(F)F)c3)cc2)CCOCC1 [Example 573],,,0.0751 µM,1.71 µM
O=C(NO)C1(S(=O)(=O)c2ccc(OCCCc3cccnc3)cc2)CCOCC1 [Example 575],,,0.002 µM,0.0084 µM
O=C(CCCOc1ccc(S(=O)(=O)C2(C(=O)NO)CCOCC2)cc1)N1CCc2ccccc21 [Example 577],,,0.0012 µM,0.0482 µM
CC(C)Oc1cccc(NC(=O)CCCOc2ccc(S(=O)(=O)C3(C(=O)NO)CCOCC3)cc2)c1 [Example 583],,,0.0016 µM,0.0157 µM
COc1cc(CCCOc2ccc(S(=O)(=O)C3(C(=O)NO)CCOCC3)cc2)cc(OC)c1 [Example 585],,,0.004 µM,0.0854 µM
CC(=O)c1cccc(CCCOc2ccc(S(=O)(=O)C3(C(=O)NO)CCOCC3)cc2)c1 [Example 586],,,0.0006 µM,0.0101 µM
COc1ccc(C(=N)NCCCOc2ccc(S(=O)(=O)C3(C(=O)NO)CCOCC3)cc2)cc1 [Example 588],,,0.015 µM,0.0949 µM
O=C(NCCOc1ccc(S(=O)(=O)C2(C(=O)NO)CCOCC2)cc1)c1nc2ccccc2s1 [Example 589],,,0.0004 µM,0.0099 µM
O=C(NO)C1(S(=O)(=O)c2ccc(OCCn3nnc4ccccc4c3=O)cc2)CCOCC1 [Example 590],,,0.048 µM,0.858 µM
Cn1c(C(=O)NCCOc2ccc(S(=O)(=O)C3(C(=O)NO)CCOCC3)cc2)cc2ccccc21 [Example 592],,,0.0387 µM,0.336 µM
O=C(NCCSc1ccc(S(=O)(=O)C2(C(=O)NO)CCOCC2)cc1)c1cc2ccccc2[nH]1 [Example 593],,,0.0156 µM,0.0065 µM
O=C(NO)C1(S(=O)(=O)c2ccc(OCCc3cccc(N4CCCCC4)c3)cc2)CCOCC1 [Example 594],,,0.0038 µM,0.14 µM
O=C(NCCSc1ccc(S(=O)(=O)C2(C(=O)NO)CCOCC2)cc1)c1cc2ccccc2s1 [Example 597],,,0.0121 µM,0.471 µM
N=C(NCCOc1ccc(S(=O)(=O)C2(C(=O)NO)CCOCC2)cc1)c1ccccc1 [Example 600],,,0.214 µM,0.206 µM
COc1cccc(CC(=O)NCCOc2ccc(S(=O)(=O)C3(C(=O)NO)CCOCC3)cc2)c1 [Example 602],,,0.0036 µM,0.0137 µM
COc1ccc(S(=O)(=O)NCCOc2ccc(S(=O)(=O)C3(C(=O)NO)CCOCC3)cc2)cc1 [Example 603],,,0.0024 µM,0.034 µM
O=C(NCCOc1ccc(S(=O)(=O)C2(C(=O)NO)CCOCC2)cc1)c1ccc(-c2ccccc2)cc1 [Example 604],,,0.0033 µM,0.0366 µM
O=C(NCCSc1ccc(S(=O)(=O)C2(C(=O)NO)CCOCC2)cc1)c1ccc(-c2ccc(O)cc2)cc1 [Example 605],,,0.0038 µM,0.044 µM
O=C(NCCOc1ccc(S(=O)(=O)C2(C(=O)NO)CCOCC2)cc1)c1ccc(-c2cccc(C(F)(F)F)c2)o1 [Example 610],,,0.0041 µM,0.488 µM
O=C(NCCOc1ccc(S(=O)(=O)C2(C(=O)NO)CCOCC2)cc1)c1ccc(-c2cc(C(F)(F)F)ccc2Cl)o1 [Example 611],,,0.0136 µM,0.733 µM
CC(C)CCCc1cccc(CCCOc2ccc(S(=O)(=O)C3(C(=O)NO)CCOCC3)cc2)c1 [Example 612],,,0.0161 µM,1.23 µM
CN(C)c1cccc(CCCOc2ccc(S(=O)(=O)C3(C(=O)NO)CCN(C4CC4)CC3)cc2)c1 [Example 613],,,0.0066 µM,0.0343 µM
O=C(Cc1ccc(-c2ccc(Cl)cc2)s1)NCCOc1ccc(S(=O)(=O)C2(C(=O)NO)CCOCC2)cc1 [Example 618],,,0.0275 µM,0.822 µM
